Test results from article PMC8973347, “Discovery of novel sulphonamide hybrids that inhibit LSD1 against bladder cancer cells” (Journal of Enzyme Inhibition and Medicinal Chemistry, 2022).
Like-named read-outs stand apart in the source and are kept apart here.

Tests used:
NAMPT = system: NAMPT; set-up: method as in PMID 30992165; conditions: cited from earlier work
DU145 = system: DU145; set-up: method as in PMID 30992165; conditions: cited from earlier work
Hela [1] = system: Hela; set-up: method as in PMID 30992165; conditions: cited from earlier work
H1975 = system: H1975; set-up: method as in PMID 30992165; conditions: cited from earlier work
PC-3 cells = system: PC-3 cells; set-up: method as in PMID 28872607; conditions: read-out: IC50 against PC-3 cells; cited from earlier work
HCT-116 = system: HCT-116; set-up: method as in PMID 31181480; conditions: read-out: IC50 against HCT-116; cited from earlier work
RKO = system: RKO; set-up: method as in PMID 31181480; conditions: read-out: IC50 against RKO; cited from earlier work
A2780 = system: A2780; set-up: method as in PMID 31181480; conditions: read-out: IC50 against A2780; cited from earlier work
Hela [2] = system: Hela; set-up: method as in PMID 31181480; conditions: read-out: IC50 against Hela; cited from earlier work
MAO-A = target: T1, MAO-A (Homo sapiens, UniProt P21397); assay: MAO-A/B biochemical kit, MAO-A
T1 construct: purchased Promega
T1 sequence (P21397 1-527): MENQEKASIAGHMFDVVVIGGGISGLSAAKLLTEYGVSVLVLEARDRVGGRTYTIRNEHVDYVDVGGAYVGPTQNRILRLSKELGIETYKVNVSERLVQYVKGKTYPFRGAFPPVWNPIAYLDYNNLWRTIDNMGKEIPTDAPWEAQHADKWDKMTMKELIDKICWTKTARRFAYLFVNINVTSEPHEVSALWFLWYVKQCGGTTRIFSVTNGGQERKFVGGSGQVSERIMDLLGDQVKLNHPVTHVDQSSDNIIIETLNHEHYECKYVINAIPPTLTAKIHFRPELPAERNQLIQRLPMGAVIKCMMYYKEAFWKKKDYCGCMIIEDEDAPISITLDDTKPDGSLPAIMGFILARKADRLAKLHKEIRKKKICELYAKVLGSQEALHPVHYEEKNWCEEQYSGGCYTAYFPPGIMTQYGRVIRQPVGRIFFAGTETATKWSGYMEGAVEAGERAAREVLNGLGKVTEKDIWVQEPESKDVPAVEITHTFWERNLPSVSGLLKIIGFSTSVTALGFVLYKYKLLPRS
From the text: (§1) LSD1 inhibitor screening assay kit was purchased to evaluate for the enzyme inhibition activity of all synthetic compounds (Cayman Chemical, Fort Annapolis, MI). The MAO-A/B biochemical kit was purchased to explore the inhibitory activity against MAO-A and MAO-B (Promega, Madison, WI). […] The signal of each well was read by a GloMax Explorer (Beijing Yuanpinghao Biotechnology Co., Ltd, Beijing, China).

MAO-B = target: T2, MAO-B (Homo sapiens, UniProt P27338); assay: MAO-A/B biochemical kit, MAO-B
T2 construct: purchased Promega
T2 sequence (P27338 1-520): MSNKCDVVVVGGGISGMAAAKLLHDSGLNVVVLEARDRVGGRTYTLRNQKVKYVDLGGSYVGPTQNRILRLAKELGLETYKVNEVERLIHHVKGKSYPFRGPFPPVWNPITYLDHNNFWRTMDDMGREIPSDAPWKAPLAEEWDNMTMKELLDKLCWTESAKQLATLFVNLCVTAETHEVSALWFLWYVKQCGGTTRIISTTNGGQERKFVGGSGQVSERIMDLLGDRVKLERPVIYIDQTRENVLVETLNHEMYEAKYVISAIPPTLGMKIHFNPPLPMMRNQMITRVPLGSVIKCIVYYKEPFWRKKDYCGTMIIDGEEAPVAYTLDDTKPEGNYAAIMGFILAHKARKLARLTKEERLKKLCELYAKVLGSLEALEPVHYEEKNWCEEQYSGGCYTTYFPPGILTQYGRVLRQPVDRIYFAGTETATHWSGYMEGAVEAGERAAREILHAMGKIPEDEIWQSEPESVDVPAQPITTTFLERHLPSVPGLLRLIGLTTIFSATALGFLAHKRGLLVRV
From the text: as §1

LSD1 = LSD1 (Homo sapiens, UniProt O60341); assay: LSD1 inhibitor screening assay kit
From the text: as §1

IC50 (MAO-A)	IC50 (MAO-B)	IC50 (LSD1)	SMILES	other results
			Cc1ccccc1NS(=O)(=O)c1cccc(CCCCCCNC(=O)/C=C/c2cccnc2)c1 [Compound 4]	IC50 (NAMPT): 0.00508 µM; antiproliferative activity against DU145 cells (DU145): single-digit nanomolar; antiproliferative activity against Hela cells (Hela [1]): single-digit nanomolar; antiproliferative activity against H1975 cells (H1975): single-digit nanomolar
			Cc1ccc(S(=O)(=O)NCc2cn(Cc3cccc(Oc4ccccc4)c3)nn2)cc1 [Compound 5]	IC50 (PC-3 cells): 4.08 µM
			COc1cccc(Nc2ccnc3cc(OCCCc4ccccc4)ccc23)c1 [Compound 8]	IC50 (HCT-116): 2.56 µM; IC50 (RKO): 3.67 µM; IC50 (A2780): 3.46 µM; IC50 (Hela [2]): 2.71 µM
> 120 µM	> 120 µM	33.8 ± 2.04 µM	COc1ccc(S(=O)(=O)Nc2cccc3cccnc23)cc1OC [Compound J1, 3,4-Dimethoxy-N-(quinolin-8-yl)benzenesulphonamide]	
> 120 µM	> 120 µM	45.6 ± 1.12 µM	COc1ccc(S(=O)(=O)Nc2cccc3cccnc23)cc1 [Compound J2, 4-Methoxy-N-(quinolin-8-yl)benzenesulphonamide]	
> 120 µM	> 120 µM	61.9 ± 2.46 µM	CC(C)(C)c1ccc(S(=O)(=O)Nc2cccc3cccnc23)cc1 [Compound J3, 4-(Tert-butyl)-N-(quinolin-8-yl)benzenesulphonamide]	
> 120 µM	> 120 µM	82.5 ± 3.38 µM	O=S(=O)(Nc1cccc2cccnc12)c1ccccc1 [Compound J4, N-(quinolin-8-yl)benzenesulphonamide]	
> 120 µM	> 120 µM	74.5 ± 2.67 µM	Cc1ccc(S(=O)(=O)Nc2cccc3cccnc23)cc1 [Compound J5, 4-Methyl-N-(quinolin-8-yl)benzenesulphonamide]	
> 120 µM	> 120 µM	61.8 ± 5.64 µM	O=S(=O)(Nc1cccc2cccnc12)c1ccc(Br)cc1 [Compound J6, 4-Bromo-N-(quinolin-8-yl)benzenesulphonamide]	melting point: 192 to 194 °C
> 120 µM	> 120 µM	11.6 ± 1.92 µM	COc1cc(NS(=O)(=O)c2cccc3cccnc23)cc(OC)c1OC [Compound J7, N-(3,4,5-trimethoxyphenyl)quinoline-8-sulphonamide]	
> 120 µM	> 120 µM	9.63 ± 1.26 µM	COc1cc(N(CCCBr)S(=O)(=O)c2cccc3cccnc23)cc(OC)c1OC [Compound K2, N-(3-bromopropyl)-N-(3,4,5-trimethoxyphenyl)quinoline-8-sulphonamide]	
> 120 µM	> 120 µM	6.32 ± 0.77 µM	COc1cc(N(CCCCBr)S(=O)(=O)c2cccc3cccnc23)cc(OC)c1OC [Compound K3, N-(4-bromobutyl)-N-(3,4,5-trimethoxyphenyl)quinoline-8-sulphonamide]	melting point: 103 to 104 °C
> 120 µM	> 120 µM	2.73 ± 0.29 µM	COc1cc(N(CCSC(=S)N2CCN(C(=O)OC(C)(C)C)CC2)S(=O)(=O)c2cccc3cccnc23)cc(OC)c1OC [Compound L1, Tert-butyl-4-(((2-(N-(3,4,5-trimethoxyphenyl)quinoline-8-sulfonamido)ethyl)thio)carbonothioyl)piperazine-1-carboxylate]	melting point: 121 to 123 °C
> 120 µM	> 120 µM	1.39 ± 0.14 µM	COc1cc(N(CCCSC(=S)N2CCN(C(=O)OC(C)(C)C)CC2)S(=O)(=O)c2cccc3cccnc23)cc(OC)c1OC [Compound L2, Tert-butyl-4-(((3-(N-(3,4,5-trimethoxyphenyl)quinoline-8-sulfonamido)propyl)thio)carbonothioyl)piperazine-1-carboxylate]	melting point: 130 to 132 °C
> 120 µM	> 120 µM		CCN1CCN(C(=S)SCCCCN(c2cc(OC)c(OC)c(OC)c2)S(=O)(=O)c2cccc3cccnc23)CC1 [Compound L5, 4-(N-(3,4,5-trimethoxyphenyl)quinoline-8-sulfonamido)butyl-4-ethylpiperazine-1-carbodithioate]	LSD1 activity loss, hydroxyethyl group replaced with ethyl group (LSD1; compound L8 versus L5): over 80 fold; IC50 (LSD1; read-out: IC50 (μM) LSD1): 4.92 ± 0.13 µM
> 120 µM	> 120 µM	0.23 ± 0.05 µM	COc1cc(N(CCCCSC(=S)N2CCN(C(=O)OC(C)(C)C)CC2)S(=O)(=O)c2cccc3cccnc23)cc(OC)c1OC [Compound L6, Tert-butyl-4-(((4-(N-(3,4,5-trimethoxyphenyl)quinoline-8-sulfonamido)butyl)thio)carbonothioyl)piperazine-1-carboxylate]	melting point: 98 to 100 °C
> 120 µM	> 120 µM		COc1cc(N(CCCCSC(=S)N2CCN(C)CC2)S(=O)(=O)c2cccc3cccnc23)cc(OC)c1OC [Compound L7, 4-(N-(3,4,5-trimethoxyphenyl)quinoline-8-sulfonamido)butyl-4-methylpiperazine-1-carbodithioate]	IC50 (LSD1; read-out: IC50 (μM) LSD1): 0.73 ± 0.08 µM
> 120 µM			N[C@H]1CC[C@H](N[C@@H]2C[C@H]2c2ccccc2)CC1 [ORY-1001, reference compound]	

SMILES	IC50 (MAO-A)	IC50 (MAO-B)	IC50 (LSD1)	other results
COc1cc(N(CCBr)S(=O)(=O)c2cccc3cccnc23)cc(OC)c1OC [Compound K1, N-(2-bromoethyl)-N-(3,4,5-trimethoxyphenyl)quinoline-8-sulphonamide]	> 120 µM	> 120 µM	14.8 ± 2.04 µM	melting point: 158 to 160 °C
COc1cc(N(CCSC(=S)N2CCN(CCO)CC2)S(=O)(=O)c2cccc3cccnc23)cc(OC)c1OC [Compound L3, 2-(N-(3,4,5-trimethoxyphenyl)quinoline-8-sulfonamido)ethyl-4–(2-hydroxyethyl)piperazine-1-carbodithioate]	> 120 µM	> 120 µM		IC50 (LSD1; read-out: IC50 (μM) LSD1): 1.85 ± 0.07 µM
COc1cc(N(CCCSC(=S)N2CCN(CCO)CC2)S(=O)(=O)c2cccc3cccnc23)cc(OC)c1OC [Compound L4, 3-(N-(3,4,5-trimethoxyphenyl)quinoline-8-sulfonamido)propyl-4–(2-hydroxyethyl)piperazine-1-carbodithioate]	> 120 µM	> 120 µM		IC50 (LSD1; read-out: IC50 (μM) LSD1): 0.67 ± 0.1 µM
